Results from ChEMBL document CHEMBL4130488, “Synthesis and biological evaluation of novel non-racemic indole-containing allocolchicinoids” (Eur J Med Chem, 2017).
pIC50: −log10 of the molar value. The source made the active and inactive calls. No cut-off for these calls is given here.

How the values were obtained:
HEK293 [1] = test: Cytotoxic activity in HEK293 cells assessed as reduction in cell viability at 0.1 to 100000 nM incubated for 24 hrs by MTT assay; assay type: cell-based; settings: human, hek293, 24 h, 100 µM
COLO357 [2] = test: Induction of apoptosis in human Colo-357 cells at 5 uM incubated for 72 hrs by propidium iodide staining based flow cytometry (reference value: 12.4%); assay type: functional
COLO357 [3] = test: Induction of cell cycle arrest in human Colo-357 cells assessed as accumulation at G2/M phase at 5 uM incubated for 72 hrs by propidium iodide staining based flow cytometry (reference value: 31%); assay type: functional
[4] = Gastrointestinal toxicity in human HT-29 cells assessed as effect on membrane integrity at 5 uM incubated for 3 hrs by flow cytometry; assay type: cell-based; settings: ht-29, 3 h
COLO357 [5] = test: Growth inhibition of human Colo-357 cells incubated for 72 hrs by MTT assay; assay type: functional
Homo sapiens [6] = organism: Homo sapiens; test: Inhibition of beta tubulin assembly in human Colo-357 cells at 5 uM incubated for 3 hrs by anti-tubulin antibody based confocal microscopy; assay type: cell-based
HT-29 = test: Cytotoxic activity in human HT-29 cells assessed as reduction in cell viability at 0.1 to 100000 nM incubated for 24 hrs by MTT assay; assay type: functional, cell-based
PANC-1 = test: Cytotoxic activity in human PANC1 cells assessed as reduction in cell viability at 0.1 to 100000 nM incubated for 24 hrs by MTT assay; assay type: functional, cell-based
COLO357 [7] = test: Induction of cell cycle arrest in human Colo-357 cells assessed as accumulation at G phase at 5 uM incubated for 72 hrs by propidium iodide staining based flow cytometry (reference value: 56.6%); assay type: functional
Homo sapiens [8] = organism: Homo sapiens; test: Inhibition of beta tubulin assembly in human Colo-357 cells at 5 uM incubated for 24 hrs by anti-tubulin antibody based confocal microscopy; assay type: cell-based
[9] = Gastrointestinal toxicity in human HT-29 cells assessed as effect on endosomes at 5 uM incubated for 3 hrs by flow cytometry; assay type: cell-based; settings: ht-29, 3 h
[10] = Gastrointestinal toxicity in human HT-29 cells assessed as effect on golgi apparatus at 5 uM incubated for 3 hrs by flow cytometry; assay type: cell-based; settings: ht-29, 3 h
COLO357 [11] = test: Induction of cell cycle arrest in human Colo-357 cells assessed as accumulation at […] phase at 5 uM incubated for 72 hrs by propidium iodide staining based flow cytometry (reference value: 1.8%); assay type: functional
COLO357 [12] = test: Cytotoxic activity in human Colo-357 cells assessed as reduction in cell viability incubated for 72 hrs by MTT assay; assay type: functional, cell-based; settings: COLO357, 72 h
[13] = Gastrointestinal toxicity in human HT-29 cells assessed as lysosomal membrane potential at 5 uM incubated for 3 hrs by flow cytometry; assay type: cell-based; settings: ht-29, 3 h
COLO357 [14] = test: Induction of mitochondrial changes in human Colo-357 cells at 5 uM incubated for 3 hrs by flow cytometry; assay type: functional, cell-based
MIA PaCa-2 = test: Cytotoxic activity in human MIAPaCa2 cells assessed as reduction in cell viability incubated for 72 hrs by MTT assay; assay type: functional, cell-based; settings: MIA PaCa-2, 72 h
[15] = Gastrointestinal toxicity in human HT-29 cells assessed as effect on EPR at 5 uM incubated for 3 hrs by flow cytometry; assay type: cell-based; settings: ht-29, 3 h
[16] = Gastrointestinal toxicity in human HT-29 cells assessed as mitochondrial stimulation at 5 uM incubated for 3 hrs by flow cytometry; assay type: cell-based; settings: ht-29, 3 h
HEK293 [17] = test: Cytotoxic activity in HEK293 cells assessed as reduction in cell viability incubated for 72 hrs by MTT assay; assay type: cell-based; settings: Homo sapiens, HEK293, 72 h
[18] = Gastrointestinal toxicity in human HT-29 cells assessed as relocation from perinuclear position to cytoplasm at 5 uM incubated for 3 hrs by flow cytometry; assay type: cell-based; settings: ht-29, 3 h
[19] = Gastrointestinal toxicity in human HT-29 cells assessed as increase in mitochondrial number at 5 uM incubated for 3 hrs by flow cytometry; assay type: cell-based; settings: ht-29, 3 h
[20] = Gastrointestinal toxicity in human HT-29 cells assessed as increase in mitochondrial membrane potential at 5 uM incubated for 3 hrs by flow cytometry; assay type: cell-based; settings: ht-29, 3 h

SMILES	Activity (COLO357 [2]) [%]	Activity (COLO357 [3]) [%]	Activity [4]	growth inhibition (GI) (COLO357 [5])	Activity (COLO357 [7]) [%]	inhibition (Homo sapiens [8])	Activity [9]	Activity [10]	Activity (COLO357 [11]) [%]	pIC50 (COLO357 [12]; read-out: IC50)	Activity [13]	pIC50 (MIA PaCa-2; read-out: IC50)	Activity [15]	pIC50 (HEK293 [17])	also measured
COc1c(Br)c2c(c(OC)c1OC)-c1cc3cc(CO)n(C)c3cc1[C@@H](NC(C)=O)CC2	25	63	Non-Toxic	60 - 80%	12	Active	Non-Toxic	Non-Toxic	0.2	9.52	Non-Toxic	> 10.00	Non-Toxic	8.19	Activity (HEK293 [1]): Non-Toxic; inhibition (Homo sapiens [6]): Active; Activity (HT-29): Active; Activity (PANC-1): inactive; Activity (COLO357 [14]): Active; Activity [16]: Non-Toxic
COc1c(Br)c2c(c(OC)c1OC)-c1cc3cc(CO)[nH]c3cc1[C@@H](NC(C)=O)CC2	23	61	–	60 - 80%	16	Active	–	–	0.3	8.46	–	8.00	–	6.80	–
COc1cc2c(c(OC)c1OC)-c1ccc(OC)c(=O)cc1[C@@H](NC(C)=O)CC2 [COLCHICINE]	12.4	75	Non-Toxic	60 - 80%	12.6	Active	Non-Toxic	Non-Toxic	0.2	–	Toxic	–	Non-Toxic	7.49	Activity [18]: Toxic; Activity [19]: Toxic; Activity [20]: Toxic; pIC50 (COLO357 [12]): 8.89; pIC50 (MIA PaCa-2): 8.89
